This note sets out measurements from article PMC3701698, “Pathway-based Screening Strategy for Multitarget Inhibitors of Diverse Proteins in Metabolic Pathways” (PLoS Computational Biology, 2013).

Like-named read-outs stand apart in the source and are kept apart here. Bounds are passed on as bounds.

The IC50 is the concentration needed to halve the response being measured. The inhibition is the change of the read-out against control, counted positive when it falls.

Experiment [1] concerns the target T1, shikimate dehydrogenase (SDH) (Helicobacter pylori, UniProt P56119).
T1 sequence (P56119 1-263): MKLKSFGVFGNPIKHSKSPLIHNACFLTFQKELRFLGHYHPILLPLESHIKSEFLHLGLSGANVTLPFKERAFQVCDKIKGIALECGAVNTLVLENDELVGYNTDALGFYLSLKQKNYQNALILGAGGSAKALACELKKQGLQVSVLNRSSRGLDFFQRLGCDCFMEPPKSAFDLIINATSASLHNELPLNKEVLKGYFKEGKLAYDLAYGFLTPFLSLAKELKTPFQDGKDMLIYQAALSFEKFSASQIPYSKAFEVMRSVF
Put plainly: Single enzyme inhibition assay, SDH activity (formation of NADPH, A340). The experiment is classed as biochemical. The note with it: for IC50: 1.6 mM shikimate, 2 mM NADP, 25°C, pH 8.0. Here is the method: (§1) The SK activity was measured by coupling the release of ADP from the SK-catalyzed reaction to the oxidation of NADH using pyruvate kinase (EC 2.7.1.40) and lactate dehydrogenase (EC 1.1.1.27) as coupling enzymes. SDH activity was determined by monitoring the formation of NADPH. The initial rate of the reaction was measured by the increase in absorbance at A340 (ε = 6,200 M^−1 cm^−1) in the present of shikimate. The assay was performed at 25°C in a mixture of 100 mM Tris-HCl buffer, pH 8.0.
(§2) Both SK and SDH were used in a final enzyme concentration of 100 nM. For determination of IC50 for each inhibitor, the assay was initiated by the addition of shikimate (1.6 mM) after incubation in a buffer containing cofactor (2 mM ATP for SK or 2 mM NADP for SDH), enzyme, and inhibitor (dissolved in 5% dimethyl sulfoxide). All assays were conducted in a 96-well microplate and analyzed with a spectrophotometer (FLUOstar OPTIMA, BMG LABTECH). A dose-response curve was fitted using the non-linear regression function of GraphPad Prism®.

The target of the next experiment is shikimate kinase (SK) (Helicobacter pylori, UniProt P56073). Put plainly: Single enzyme inhibition assay, SK activity (ADP release coupled to NADH oxidation). Format: biochemical. The note with it: for IC50: 1.6 mM shikimate, 2 mM ATP, 25°C, pH 8.0; for inhibition at 100 µM: Table S4, read-out: SK IC50 (μM), dash = inhibition percentage. The method, then:
as §1, §2

Experiment [2] deals with T2, 3-dehydroquinate synthase (Helicobacter pylori, UniProt P56081).
T2 sequence (P56081 1-343): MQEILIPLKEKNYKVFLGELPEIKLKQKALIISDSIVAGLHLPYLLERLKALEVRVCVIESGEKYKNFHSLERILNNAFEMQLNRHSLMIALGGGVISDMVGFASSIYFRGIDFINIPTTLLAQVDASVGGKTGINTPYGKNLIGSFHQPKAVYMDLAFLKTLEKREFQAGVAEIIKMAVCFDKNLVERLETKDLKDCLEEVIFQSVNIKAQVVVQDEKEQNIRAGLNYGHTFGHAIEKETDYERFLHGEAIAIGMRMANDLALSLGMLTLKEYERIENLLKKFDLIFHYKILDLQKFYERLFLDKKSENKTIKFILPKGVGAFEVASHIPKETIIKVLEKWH
Put plainly: 3-dehydroquinate synthase inhibition assay (NADH quantification). Format: biochemical. The conditions noted are these: for inhibition of 3-dehydroquinate synthase: 1 mM DAHP, 0.5 mM NAD+. Here is the method: (§3) We performed ADP assay providing a direct method to analyze SDH-SK dual enzyme activity. The assay was initiated by addition of the 3-dehydroshikimate (2 mM) after incubating in a reaction mixture containing 2.5 mM ATP, 0.5 mM NADPH, 100 nM SDH, 100 nM SK enzyme, 50 mM KCl, 5 mM MgCl2 and different inhibitors. The reaction was carried out at 25°C in a mixture of 100 mM Tris-HCl buffer, pH 7.5 and terminated at 100°C for 5 mins in the reaction time of initial rate. The amount of ADP was measured by using ADP Colorimetric Assay Kit II (BioVision) according to the manufacturer's instruction. We also performed 3-dehydroquinate synthase inhibition assay. The reaction was comprised of 3-deoxy-D-arabinoheptulosonate 7-phosphate (1 mM) and NAD+ (0.5 mM). The amount of NADH was measured by using NAD+/NADH Quantification Kit (BioVision). All assays were conducted in a 96-well microplate and analyzed with a spectrophotometer (FLUOstar OPTIMA, BMG LABTECH). The dose-response curve was fitted using the non-linear regression function of GraphPad Prism. The IC90 values were computed from the IC50 and Hill slop.

The next experiment relates to dual enzyme (SDH and SK). Put plainly: SDH-SK dual enzyme activity ADP assay. Format: biochemical, Helicobacter pylori. The note with it: for dual enzyme dose-response curve compared with SDH and SK curves: 2 mM 3-dehydroshikimate, 100 nM SDH, 100 nM SK; for dual enzyme (SDH and SK) activity curve: at inhibitor concentrations greater than the IC90 value. Here is the method: as §3

Setting [3] is: 100 nM enzyme, read-out: SDH IC50.
Setting [4] is: 100 nM enzyme, read-out: SK IC50.

Sequence of shikimate kinase (SK) (P56073 whole entry): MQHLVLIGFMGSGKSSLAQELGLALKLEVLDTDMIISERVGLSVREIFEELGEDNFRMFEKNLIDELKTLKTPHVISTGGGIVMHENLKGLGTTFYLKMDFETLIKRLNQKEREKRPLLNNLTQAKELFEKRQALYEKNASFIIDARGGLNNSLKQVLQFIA

`Cc1ccc(S(=O)(=O)CCSc2n[nH]c(=O)n2-c2ccc(OCc3ccccc3)cc2)cc1` [HTS02873]: the IC50 in experiment [1] (setting [3]) is 4.9 µM; at shikimate kinase (SK) (setting [4]), over 100 µM. The “inhibitory effect for SK” value against shikimate kinase (SK) (at 100 µM) is “no inhibitory effect”. The inhibition at 100 µM at shikimate kinase (SK) was under 50%.

Turning to `O=C(Nc1ccc2c(O)cc(S(=O)(=O)O)cc2c1)Nc1ccc2c(O)cc(S(=O)(=O)O)cc2c1` [NSC45174], the IC50 in experiment [1] (SDH IC50, 100 nM enzyme) was 3.6 µM; against shikimate kinase (SK) (SK IC50, 100 nM enzyme), under 10 µM; in experiment [2] it was 7.1 µM. Also, the “dual enzyme dose-response curve compared with SDH and SK curves” value with dual enzyme (SDH and SK) is “median effect”. The “dual enzyme (SDH and SK) activity curve” value with dual enzyme (SDH and SK) is “approximately 0”.

On to `Cc1cc(/N=N/c2ccc(/N=N/c3ccc(/N=N/c4ccc(O)c(C(=O)O)c4)cc3)c(S(=O)(=O)O)c2C)c(N)cc1N` [NSC45611], for which the IC50 in experiment [1] (setting [3]) was 1.4 µM. For the same compound, the IC50 on shikimate kinase (SK) (setting [4]) came to 4.8 µM. For the same compound, the “inhibition of 3-dehydroquinate synthase” value in experiment [2] is on record as “no inhibitions”. Also, in the experiment with dual enzyme (SDH and SK), the “dual enzyme dose-response curve compared with SDH and SK curves” value is listed as “median effect”; the “dual enzyme (SDH and SK) activity curve” value was “approximately 0”.

For `O=C(Nc1ccc2ncccc2c1)Nc1ccc2ncccc2c1` [NSC71881], the inhibition at 100 µM in experiment [1] (at 100 μM, Table S4, read-out: SDH IC50 (μM), dash = inhibition percentage) is under 50%; at shikimate kinase (SK), under 50%.

For the compound `Nc1ccc2c(O)c(N=Nc3ccc4c(O)cc(S(=O)(=O)O)cc4c3)c(S(=O)(=O)O)cc2c1` [NSC162535, reference compound], the “dual enzyme dose-response curve compared with SDH and SK curves” value in the experiment on dual enzyme (SDH and SK) is on record as “nearly identical profiles”.

Consider `O=C(NNC(=O)C1c2ccccc2Oc2ccccc21)c1cccc([N+](=O)[O-])c1` [RH00037], for which the IC50 in experiment [1] (setting [3]) worked out at 24.8 µM. Also, in experiment [2], the “inhibition of 3-dehydroquinate synthase” value was “no inhibitions”.
